Structures can show the parent of a compound that is named as a salt. Where two headings read alike, the source gives them in different places.
Test system: LP-1 cell line
Experiment: Cell-based pERK ELISA method, LP-1 cells
Details: Homo sapiens
[1] = LP-1, read-out: IC50 less than 1 μM or at least 50% inhibition at a concentration of 1 μM, LP-1 pERK ELISA

| IC50 [1] [µM] | IC50 (LP-1, read-out: LP-1 pERK ELISA (μM)) [µM] | Compound |
| --- | --- | --- |
| < 1 |  | COC1CCCN(c2ccn3c(-c4cccc(NC(=O)NCC(F)(F)F)c4)cnc3c2)C1 (racemic) [Example 203, (±)-1-{3-[7-(3-Methoxy-piperidin-1-yl)-imidazo[1,2-a]pyridin-3-yl]-phenyl}-3-(2,2,2-trifluoro-ethyl)-urea] |
| < 1 |  | CC(=O)Nc1cccc(-c2cnc3cc(-c4ccccc4)ccn23)c1 [Example 2, N-[3-(7-Phenyl-imidazo[1,2-a]pyridin-3-yl)-phenyl]-acetamide hydro-chloride salt] |
| < 1 |  | CC(=O)Nc1cccc(-c2cnc3cc(-c4ccc(N5CCOCC5)cc4)ccn23)c1 [Example 5, N-{3-[7-(4-Morpholin-4-yl-phenyl)-imidazo[1,2-a]pyridin-3-yl]-phenyl}-acetamide] |
| < 1 |  | CC(=O)Nc1cccc(-c2cnc3cc(-c4ccncc4)ccn23)c1 [Example 6, N-[3-(7-Pyridin-4-yl-imidazo[1,2-a]pyridin-3-yl)-phenyl]-acetamide] |
| < 1 |  | CC(=O)Nc1cccc(-c2cnc3cc(-c4ccc(F)cc4)ccn23)c1 [Example 7, N-{3-[7-(4-Fluoro-phenyl)-imidazo[1,2-a]pyridin-3-yl]-phenyl}-acetamide] |
| < 1 |  | CC(=O)Nc1cccc(-c2cnc3cc(-c4cccc(CO)c4)ccn23)c1 [Example 8, N-{3-[7-(3-Hydroxymeth-yl-phenyl)-imidazo[1,2-a]pyridin-3-yl]-phenyl}-acetamide] |
| < 1 |  | CC(=O)Nc1cccc(-c2cnc3cc(-c4cccc(CN5CCOCC5)c4)ccn23)c1 [Example 9, N-{3-[7-(3-Morpholin-4-ylmethyl-phenyl)-imidazo[1,2-a]pyridin-3-yl]-phenyl}-acetamide] |
| < 1 |  | CC(=O)Nc1cccc(-c2cnc3cc(-c4ccc(CN5CCOCC5)cc4)ccn23)c1 [Example 10, N-{3-[7-(4-Morpholin-4-ylmethyl-phenyl)-imidazo[1,2-a]pyridin-3-yl]-phenyl}-acetamide hydro-chloride salt] |
| < 1 |  | CC(=O)Nc1cccc(-c2cnc3cc(-c4cccc(CC(=O)O)c4)ccn23)c1 [Example 11, {3-[3-(3-Acetylamino-phenyl)-imidazo[1,2-a]pyridin-7-yl]-phenyl}-acetic acid] |
| < 1 |  | CCNC(=O)Nc1cccc(-c2cnc3cc(-c4ccc(F)cc4)ccn23)c1 [Example 15, 1-Ethyl-3-{3-[7-(4-fluoro-phenyl)-imidazo[1,2-a]pyridin-3-yl]-phenyl}-urea formate salt] |
| < 1 |  | COC(=O)Nc1cccc(-c2cnc3cc(-c4ccc(F)cc4)ccn23)c1 [Example 16, {3-[7-(4-Fluoro-phenyl)-imidazo[1,2-a]pyridin-3-yl]-phenyl}-carbamic acid methyl ester formate salt] |
| < 1 |  | CC(=O)Nc1cc(C#N)cc(-c2cnc3cc(-c4cccc(CN5CCOCC5)c4)ccn23)c1 [Example 28, N-{3-Cyano-5-[7-(3-morpholin-4-ylmethyl-phenyl)-imidazo[1,2-a]pyridin-3-yl]-phenyl}-acetamide] |
| < 1 |  | CCNC(=S)Nc1cccc(-c2cnc3cc(-c4cccc(CN5CCN(C)CC5)c4)ccn23)c1 [Example 29, 1-Ethyl-3-(3-{7-[3-(4-methyl-piperazin-1-ylmethyl)-phenyl]-imidazo[1,2-a]pyridin-3-yl}-phenyl)-thiourea] |
| < 1 |  | CCNC(=O)Nc1cccc(-c2cnc3cc(-c4cccc(CN5CCCCC5)c4)ccn23)c1 [Example 35, 1-Ethyl-3-{3-[7-(3-piperidin-1-ylmethyl-phenyl)-imidazo[1,2-a]pyridin-3-yl]-phenyl}-urea] |
| < 1 |  | CCNC(=O)Nc1cccc(-c2cnc3cc(-c4cccc(C(=O)N5CCOCC5)c4)ccn23)c1 [Example 36, 1-Ethyl-3-(3-{7-[3-(morpholine-4-carbonyl)-phenyl]-imidazo[1,2-a]pyridin-3-yl}-phenyl)-urea] |
| < 1 |  | CCNC(=O)Nc1cccc(-c2cnc3cc(-c4ccc(C(C)(C)C(=O)OC)cc4)ccn23)c1 [Example 39, 2-(4-{3-[3-(3-Ethyl-ureido)-phenyl]-imidazo[1,2-a]pyridin-7-yl}-phenyl)-2-methyl-propionic acid methyl ester] |
| < 1 |  | CCNC(=O)Nc1cccc(-c2cnc3cc(-c4ccc(OC)nc4)ccn23)c1 [Example 43, 1-Ethyl-3-{3-[7-(6-methoxy-pyridin-3-yl)-imidazo[1,2-a]pyridin-3-yl]-phenyl}-urea] |
| < 1 |  | CCNC(=O)Nc1cccc(-c2cnc3cc(-c4ccnc(OC)c4)ccn23)c1 [Example 45, 1-Ethyl-3-{3-[7-(2-methoxy-pyridin-4-yl)-imidazo[1,2-a]pyridin-3-yl]-phenyl}-urea] |
| < 1 |  | CCNC(=O)Nc1cccc(-c2cnc3cc(-c4ccc(N5CCOCC5)nc4)ccn23)c1 [Example 49, 1-Ethyl-3-{3-[7-(6-morpholin-4-yl-pyridin-3-yl)-imidazo[1,2-a]pyridin-3-yl]-phenyl}-urea formate salt] |

| IC50 [1] [µM] | IC50 (LP-1, read-out: LP-1 pERK ELISA (μM)) [µM] | Compound |
| --- | --- | --- |
| < 1 |  | CCNC(=O)Nc1cccc(-c2cnc3cc(-c4ccc(CCN5CCOCC5)cc4)ccn23)c1 [Example 56, 1-Ethyl-3-(3-{7-[4-(2-morpholin-4-yl-ethyl)-phenyl]-imidazo[1,2-a]pyridin-3-yl}-phenyl)-urea hydro-chloride salt] |
| < 1 |  | CCNC(=O)Nc1cccc(-c2cnc3cc(-c4ccc(N5CCNCC5)cc4)ccn23)c1 [Example 57, 1-Ethyl-3-{3-[7-(4-piperazin-1-yl-phenyl)-imidazo[1,2-a]pyridin-3-yl]-phenyl}-urea hydro-chloride salt] |
| < 1 |  | CCNC(=O)Nc1cccc(-c2cnc3cc(-c4ccc(N5CCCCC5)nc4)ccn23)c1 [Example 58, 1-Ethyl-3-{3-[7-(3,4,5,6-tetrahydro-2H-[1,2′]bipyridinyl-5′-yl)-imidazo[1,2-a]pyridin-3-yl]-phenyl}-urea hydro-chloride salt] |
|  | 0.0021 | O=C(NCC(F)(F)F)Nc1cccc(-c2cnc3cc(-c4ccc(F)cc4)ccn23)c1 [Example 59, 1-{3-[7-(4-fluoro-phenyl)-imidazo[1,2-a]pyridin-3-yl]-phenyl}-3-(2,2,2-trifluoro-ethyl)-urea] |
| < 1 |  | CC(=O)Nc1cccc(-c2cnc3cc(-c4ccnc(N5CCN(C)CC5)c4)ccn23)c1 [Example 62, N-(3-{7-[2-(4-Methyl-piperazin-1-yl)-pyridin-4-yl]-imidazo[1,2-a]pyridin-3-yl}-phenyl)-acetamide] |
| < 1 |  | CCC(=O)Nc1cccc(-c2cnc3cc(-c4ccc(F)cc4)ccn23)c1 [Example 64, N-{3-[7-(4-Fluoro-phenyl)-imidazo[1,2-a]pyridin-3-yl]-phenyl}-propionamide] |
| < 1 |  | CC(=O)Nc1cccc(-c2cnc3cc(-c4ccc(OCC(O)CO)cc4)ccn23)c1 (centres unmarked) [Example 65, N-(3-{7-[4-(2,3-Dihydroxy-propoxy)-phenyl]-imidazo[1,2-a]pyridin-3-yl}-phenyl)-acetamide] |
| < 1 |  | CCCC(=O)Nc1cccc(-c2cnc3cc(-c4ccc(F)cc4)ccn23)c1 [Example 66, N-{3-[7-(4-Fluoro-phenyl)-imidazo[1,2-a]pyridin-3-yl]-phenyl}-butyramide] |
| < 1 |  | NCC(=O)Nc1cccc(-c2cnc3cc(-c4ccc(F)cc4)ccn23)c1 [Example 67, 2-Amino-N-{3-[7-(4-fluoro-phenyl)-imidazo[1,2-a]pyridin-3-yl]-phenyl}-acetamide formate salt] |
| < 1 |  | COc1cc(NC(C)=O)cc(-c2cnc3cc(-c4cccc(CN5CCOCC5)c4)ccn23)c1 [Example 78, N-{3-Methoxy-5-[7-(3-morpholin-4-ylmethyl-phenyl)-imidazo[1,2-a]pyridin-3-yl]-phenyl}-acetamide] |
| < 1 |  | CCNC(=O)Nc1cccc(-c2cnc3cc(-c4cccc(C(=O)N5CCN(C)CC5)c4)ccn23)c1 [Example 79, 1-Ethyl-3-(3-{7-[3-(4-methyl-piperazine-1-carbonyl)-phenyl]-imidazo[1,2-a]pyridin-3-yl}-phenyl)-urea] |
| < 1 |  | CCNC(=O)Nc1cccc(-c2cnc3cc(-c4ccc(N(C)C)nc4)ccn23)c1 [Example 80, 1-{3-[7-(6-Dimethylamino-pyridin-3-yl)-imidazo[1,2-a]pyridin-3-yl]-phenyl}-3-ethyl-urea formate salt] |
| < 1 |  | CCNC(=O)Nc1cccc(-c2cnc3cc(-c4ccc(C(=O)N5CCN(C)CC5)cc4)ccn23)c1 [Example 81, 1-Ethyl-3-(3-{7-[4-(4-methyl-piperazine-1-carbonyl)-phenyl]-imidazo[1,2-a]pyridin-3-yl}-phenyl)-urea] |
| < 1 |  | CCNC(=O)Nc1cccc(-c2cnc3cc(-c4ccc(CN5CCC5)cc4)ccn23)c1 [Example 82, 1-{3-[7-(4-Azetidin-1-ylmethyl-phenyl)-imidazo[1,2-a]pyridin-3-yl]-phenyl}-3-ethyl-urea] |
| < 1 |  | CCNC(=O)Nc1cccc(-c2cnc3cc(-c4cccc(OCCOC)c4)ccn23)c1 [Example 83, 1-Ethyl-3-(3-{7-[3-(2-methoxy-ethoxy)-phenyl]-imidazo[1,2-a]pyridin-3-yl}-phenyl)-urea] |
| < 1 |  | CCNC(=O)Nc1cccc(-c2cnc3cc(-c4cnn(C)c4)ccn23)c1 [Example 94, 1-Ethyl-3-{3-[7-(1-methyl-1H-pyrazol-4-yl)-imidazo[1,2-a]pyridin-3-yl]-phenyl}-urea] |
| < 1 |  | CCNC(=O)Nc1cccc(-c2cnc3cc(-c4ccc(=O)n(C)c4)ccn23)c1 [Example 95, 1-Ethyl-3-{3-[7-(1-methyl-6-oxo-1,6-dihydro-pyridin-3-yl)-imidazo[1,2-a]pyridin-3-yl]-phenyl}-urea] |
| < 1 |  | CC(=O)Nc1cccc(-c2cnc3ccc(-c4csc5ccccc45)cn23)c1 [Example 103, N-[3-(6-Benzo[b]thiophen-3-yl-imidazo[1,2-a]pyridin-3-yl)-phenyl]-acetamide] |
| < 1 |  | CC(=O)Nc1cccc(-c2cnc3ccc(-c4ccoc4)cn23)c1 [Example 104, N-[3-(6-Furan-3-yl-imidazo[1,2-a]pyridin-3-yl)-phenyl]-acetamide] |
